Results from ChEMBL document CHEMBL3232730, “Design, synthesis and bioevaluation of N-trisubstituted pyrimidine derivatives as potent aurora A kinase inhibitors” (Eur J Med Chem, 2014).

What was measured:
U-937 = test: Antiproliferative activity against human U937 cells assessed as cell viability after 72 hrs by CCK8 assay; type: functional, cell-based; details: Homo sapiens, U-937, 72 h; read-out: IC50
[1] = Antiproliferative activity against human MOLT4 cells assessed as cell viability after 72 hrs by CCK8 assay; type: functional, cell-based, MOLT-4; details: Homo sapiens, MOLT-4, 72 h; read-out: IC50
MCF7 = test: Antiproliferative activity against human MCF7 cells assessed as cell viability after 72 hrs by CCK8 assay; type: functional, cell-based; details: Homo sapiens, MCF7, 72 h; read-out: IC50
MDA-MB-231 = test: Antiproliferative activity against human MDA-MB-231 cells assessed as cell viability after 72 hrs by CCK8 assay; type: functional, cell-based; details: Homo sapiens, MDA-MB-231, 72 h; read-out: IC50
[2] = Antiproliferative activity against human SKBR3 cells assessed as cell viability after 72 hrs by CCK8 assay; type: functional, cell-based, SK-BR-3; details: Homo sapiens, SK-BR-3, 72 h; read-out: IC50
A549 = test: Antiproliferative activity against human A549 cells assessed as cell viability after 72 hrs by CCK8 assay; type: functional, cell-based; details: A549, 72 h
A-431 = test: Antiproliferative activity against human A431 cells assessed as cell viability after 72 hrs by CCK8 assay; type: functional, cell-based; details: Homo sapiens, A-431, 72 h; read-out: IC50
DU-145 = test: Antiproliferative activity against human DU145 cells assessed as cell viability after 72 hrs by CCK8 assay; type: functional, cell-based; details: Homo sapiens, DU-145, 72 h; read-out: IC50
PC-3 = test: Antiproliferative activity against human PC3 cells assessed as cell viability after 72 hrs by CCK8 assay; type: functional, cell-based; details: Homo sapiens, PC-3, 72 h; read-out: IC50
HeLa = test: Antiproliferative activity against human HeLa cells assessed as cell viability after 72 hrs by CCK8 assay; type: functional, cell-based; details: Homo sapiens, HeLa, 72 h; read-out: IC50
NCI-N87 = test: Antiproliferative activity against human NCI-N87 cells assessed as cell viability after 72 hrs by CCK8 assay; type: functional, cell-based; details: Homo sapiens, NCI-N87, 72 h; read-out: IC50
HCT-116 = test: Antiproliferative activity against human HCT116 cells assessed as cell viability after 72 hrs by CCK8 assay; type: functional, cell-based; details: Homo sapiens, HCT-116, 72 h; read-out: IC50
[3] = Cell cycle arrest in human CNE2 cells assessed as accumulation at G1 phase at 1 uM after 24 hrs by propidium iodide staining-based flow cytometric analysis (reference value: 52.5%); type: functional; details: CNE-2
[4] = Cell cycle arrest in human CNE2 cells assessed as accumulation at S phase at 1 uM after 24 hrs by propidium iodide staining-based flow cytometric analysis (reference value: 14.7%); type: functional; details: CNE-2
[5] = Cell cycle arrest in human CNE2 cells assessed as accumulation at G2/M phase at 1 uM after 24 hrs by propidium iodide staining-based flow cytometric analysis (reference value: 38.2%); type: functional; details: CNE-2
[6] = Cell cycle arrest in human CNE2 cells assessed as accumulation at polyploid period at 1 uM after 24 hrs by propidium iodide staining-based flow cytometric analysis (reference value: […]); type: functional; details: CNE-2
[7] = Antiproliferative activity against human PANC1 cells assessed as cell viability after 72 hrs by CCK8 assay; type: functional, cell-based; details: PANC-1, 72 h
Aurora kinase A = biological target: T1, Aurora kinase A (Homo sapiens, UniProt O14965); test: Inhibition of Aurora A (unknown origin) using FAM-labeled peptide as substrate preincubated for 10 mins followed by substrate addition measured after 60 mins
T1 sequence (O14965 whole entry): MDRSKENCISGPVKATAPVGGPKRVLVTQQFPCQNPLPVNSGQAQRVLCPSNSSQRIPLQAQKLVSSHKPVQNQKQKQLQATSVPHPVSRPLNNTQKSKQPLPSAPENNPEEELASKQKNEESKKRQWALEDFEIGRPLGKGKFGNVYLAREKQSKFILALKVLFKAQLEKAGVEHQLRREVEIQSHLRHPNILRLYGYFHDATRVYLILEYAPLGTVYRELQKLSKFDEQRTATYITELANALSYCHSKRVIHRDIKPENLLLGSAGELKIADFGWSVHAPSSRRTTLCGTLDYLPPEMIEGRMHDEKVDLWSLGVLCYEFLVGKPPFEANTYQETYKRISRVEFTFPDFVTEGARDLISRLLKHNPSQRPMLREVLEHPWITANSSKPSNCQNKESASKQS

HL-60 = test: Antiproliferative activity against human HL60 cells assessed as cell viability after 72 hrs by CCK8 assay; type: functional, cell-based; details: Homo sapiens, HL-60, 72 h; read-out: IC50
K562 = test: Antiproliferative activity against human K562 cells assessed as cell viability after 72 hrs by CCK8 assay; type: functional, cell-based; details: Homo sapiens, K562, 72 h; read-out: IC50
[8] = Cell cycle arrest in human CNE2 cells assessed as accumulation at G1 phase at 0.01 uM after 24 hrs by propidium iodide staining-based flow cytometric analysis (reference value: 52.5%); type: functional; details: CNE-2
[9] = Cell cycle arrest in human CNE2 cells assessed as accumulation at S phase at 0.01 uM after 24 hrs by propidium iodide staining-based flow cytometric analysis (reference value: 14.9%); type: functional; details: CNE-2
[10] = Cell cycle arrest in human CNE2 cells assessed as accumulation at G2/M phase at 0.01 uM after 24 hrs by propidium iodide staining-based flow cytometric analysis (reference value: 31%); type: functional; details: CNE-2
[11] = Cell cycle arrest in human CNE2 cells assessed as accumulation at polyploid period at 0.01 uM after 24 hrs by propidium iodide staining-based flow cytometric analysis (reference value: […]); type: functional; details: CNE-2
[12] = Cell cycle arrest in human CNE2 cells assessed as accumulation at G1 phase at 0.1 uM after 24 hrs by propidium iodide staining-based flow cytometric analysis (reference value: […]); type: functional; details: CNE-2
[13] = Cell cycle arrest in human CNE2 cells assessed as accumulation at S phase at 0.1 uM after 24 hrs by propidium iodide staining-based flow cytometric analysis (reference value: 13.1%); type: functional; details: CNE-2
[14] = Cell cycle arrest in human CNE2 cells assessed as accumulation at G2/M phase at 0.1 uM after 24 hrs by propidium iodide staining-based flow cytometric analysis (reference value: 24.5%); type: functional; details: CNE-2
[15] = Cell cycle arrest in human CNE2 cells assessed as accumulation at polyploid period at 0.1 uM after 24 hrs by propidium iodide staining-based flow cytometric analysis (reference value: […]%); type: functional; details: CNE-2
[16] = Cell cycle arrest in human CNE2 cells assessed as accumulation at G2/M phase after 24 hrs by propidium iodide staining-based flow cytometric analysis; type: functional; details: CNE-2

SMILES	IC50 (U-937)	IC50 [1]	IC50 (MCF7)	IC50 (MDA-MB-231)	IC50 [2]	IC50 (A549)	IC50 (A-431)	IC50 (DU-145)	IC50 (PC-3)	IC50 (HeLa)	IC50 (NCI-N87)	IC50 (HCT-116)	Activity [3]	Activity [4]	Activity [5]	Activity [6]	IC50 [7]	IC50 (Aurora kinase A)	IC50 (HL-60)	IC50 (K562)	other results
COC(=O)c1ccc(Nc2nc(Nc3cc(C)[nH]n3)cc(N3CCOCC3)n2)cc1	0.447 µM	0.302 µM	0.938 µM	0.571 µM	3.18 µM	1.59 µM	0.832 µM	0.611 µM	1.09 µM	1.89 µM	3.23 µM	1.04 µM	52.9%	7.1%	35.7%	4%	1.59 µM	0.025 µM	0.75 µM	0.537 µM	–
Cc1cc(Nc2cc(N3CCN(C)CC3)nc(Nc3cccc(Cl)c3)n2)n[nH]1	0.0217 µM	0.0201 µM	0.436 µM	0.0564 µM	2.29 µM	0.723 µM	0.0875 µM	3.09 µM	0.573 µM	0.425 µM	1.77 µM	0.736 µM	3.3%	1.7%	90.5%	3.9%	0.351 µM	0.01 µM	0.131 µM	0.0972 µM	–
COc1ccc(Nc2nc(Nc3cc(C)[nH]n3)cc(N3CCN(C)CC3)n2)cc1	0.0923 µM	0.116 µM	2.75 µM	0.243 µM	14.7 µM	2.65 µM	0.385 µM	5.05 µM	2 µM	0.867 µM	18.9 µM	2.24 µM	3.4%	2.2%	90.6%	2.4%	1.12 µM	0.034 µM	0.335 µM	0.271 µM	–
COc1cccc(Nc2nc(Nc3cc(C)[nH]n3)cc(N3CCN(C)CC3)n2)c1	0.126 µM	0.192 µM	0.933 µM	0.24 µM	11.3 µM	1.69 µM	0.332 µM	2.65 µM	1.08 µM	0.546 µM	7.19 µM	0.923 µM	3.2%	1.7%	92.5%	2.4%	0.693 µM	0.022 µM	0.397 µM	0.509 µM	Activity [8]: 61.7%; Activity [9]: 8.1%; Activity [10]: 26.1%; Activity [11]: 4.6%; Activity [12]: 57.2%; Activity [13]: 6.9%; Activity [14]: 32.2%; Activity [15]: 4%; Activity [16]: Dose-dependent effect
Cc1cc(Nc2cc(N3CCN(C)CC3)nc(Nc3ccc(C(=O)OC(C)C)cc3)n2)n[nH]1	0.103 µM	0.0941 µM	1.32 µM	0.162 µM	4.02 µM	1.22 µM	0.44 µM	0.499 µM	1.36 µM	0.985 µM	6.32 µM	1.66 µM	1.9%	1.7%	89%	7%	1.32 µM	0.022 µM	0.181 µM	0.307 µM	–
